Like-named read-outs stand apart in the source and are kept apart here.
Legend:
Type in all cases: in vivo
Phytophthora infestans [1] = conditions: tomatoes; (I-1) alone 50 ppm a.i.; evaluated 3 days after inoculation
Sphaerotheca fidiginea = assay: Sphaerotheca test (cucumbers)/preventive, Example B: (I-1) sprayed first, biological control agent 4 h later; conditions: (I-1) alone 50 ppm a.i., evaluated 7 days after inoculation
Method: (§1) To produce a suitable preparation of active compound, 1 part by weight of the dithiino-tetracarboximide is mixed with 24.5 parts by weight of acetone, 24.5 parts by weight of dimethylacetamide and 1 part by weight of emulsifier alkylaryl polyglycol ether. The concentrate is diluted with water to the desired concentration.
(§2) Serenade® WPO, a wettable powder formulation containing the bacteria Bacillus subtilis (variety QST 713), is mixed and diluted with water to the desired concentration.
Young plants are sprayed with the preparation of (I-1) 2,6-dimethyl-1H,5H-[1,4]dithiino[…]dipyrrole-1,3,5,7(2H,6H)-tetrone at the stated rate of application. 4 hours later and after the spray coating has dried on, the plants are sprayed with the aqueous preparation of the biological control agents, e.g. Serenade® WPO, at the stated rate of application. The next day the plants are inoculated with an aqueous spore suspension of Sphaerotheca fidiginea. The plants are then placed in a greenhouse at approximately 23° C. and a relative atmospheric humidity of approximately 70%. The test is evaluated 7 days after the inoculation. 0% means an efficacy which corresponds to that of the untreated control, while an efficacy of 100% means that no disease is observed.

Venturia inaequalis [2] = assay: Venturia test (apples)/preventive, Example C: (I-1) sprayed first, biological control agent 4 h later; conditions: (I-1) alone 25 ppm a.i., evaluated 10 days after inoculation
Method: as §1, §2
Young plants are sprayed with the preparation of (I-1) 2,6-dimethyl-1H,5H-[1,4]dithiino[…]dipyrrole-1,3,5,7(2H,6H)-tetrone at the stated rate of application. 4 hours later and after the spray coating has dried on, the plants are sprayed with the aqueous preparation of the biological control agents, e.g. Serenade® WPO, at the stated rate of application. The next day the plants are inoculated with an aqueous conidia suspension of the causal agent of apple scab (Venturia inaequalis) and then remain for 1 day in an incubation cabinet at approximately 20° C. and a relative atmospheric humidity of 100%. The plants are then placed in a greenhouse at approximately 21° C. and a relative atmospheric humidity of approximately 90%. The test is evaluated 10 days after the inoculation. […]

Alternaria solani [3] = assay: Alternaria test (tomatoes)/preventive, Example D: (I-1) sprayed first, biological control agent 4 h later; conditions: (I-1) alone 25 ppm a.i., evaluated 3 days after inoculation
Method: as §1
Shemer, a water dispersible granule formulation containing the yeast Metschnikowia fructicola, is mixed and diluted with water to the desired concentration.
Young plants are sprayed with the preparation of (I-1) 2,6-dimethyl-1H,5H-[1,4]diithiino[2,3-c:5,6-c′]dipyrrole-1,3,5,7(2H,6H)-tetrone at the stated rate of application. 4 hours later and after the spray coating has dried on, the plants are sprayed with the aqueous preparation of the biological control agents, e.g. Shemer, at the stated rate of application. The next day the plants are inoculated with an aqueous spore suspension of Alternaria solani. The plants are then placed in an incubation cabinet at approximately 20° C. and a relative atmospheric humidity of 100%. The test is evaluated 3 days after the inoculation. 0% means an efficacy which corresponds to that of the untreated control while an efficacy of 100% means that no disease is observed.

Phytophthora infestans [4] = conditions: tomatoes, evaluated 3 days after inoculation
Sphaerotheca fuliginea = assay: Sphaerotheca test (cucumbers)/preventive, Example F: biological control agent sprayed first, (I-1) 4 h later; conditions: (I-1) alone 50 ppm a.i., evaluated 7 days after inoculation
Method: as §1, §2
Young plants are sprayed with the aqueous preparation of the biological control agents, e.g. Serenade® WPO, at the stated rate of application. 4 hours later and after the spray coating has dried on, the plants are sprayed with the preparation of (I-1) 2,6-dimethyl-1H,5H-[1,4]dithiino[2,3-c:5,6-c′]dipyrrole-1,3,5,7(2H,6H)-tetrone at the stated rate of application. The next day the plants are inoculated with an aqueous spore suspension of Sphaerotheca fuliginea. The plants are then placed in a greenhouse at approximately 23° C. and a relative atmospheric humidity of approximately 70%. The test is evaluated 7 days after the inoculation. 0% means an efficacy which corresponds to that of the untreated control, while an efficacy of 100% means that no disease is observed.

Venturia inaequalis [5] = assay: Venturia test (apples)/preventive, Example G: biological control agent sprayed first, (I-1) 4 h later; conditions: (I-1) alone 12.5 ppm a.i., evaluated 10 days after inoculation
Method: as §1, §2
Young plants are sprayed with the aqueous preparation of the biological control agents, e.g. Serenade® WPO, at the stated rate of application. 4 hours later and after the spray coating has dried on, the plants are sprayed with the preparation of (I-1) 2,6-dimethyl-1H,5H-[1,4]dithiino[2,3-c:5,6-c′]dipyrrole-1,3,5,7(2H,6H)-tetrone at the stated rate of application. The next day the plants are inoculated with an aqueous conidia suspension of the causal agent of apple scab (Venturia inaequalis) and then remain for 1 day in an incubation cabinet at approximately 20° C. and a relative atmospheric humidity of 100%. The plants are then placed in a greenhouse at approximately 21° C. and a relative atmospheric humidity of approximately 90%. The test is evaluated 10 days after the inoculation. […]

Alternaria solani [6] = assay: Alternaria test (tomatoes)/preventive, Example H: biological control agent sprayed first, (I-1) 4 h later; conditions: (I-1) alone 25 ppm a.i., evaluated 3 days after inoculation
Method: as §1, §2
Young plants are sprayed with the aqueous preparation of the biological control agents, e.g. Serenade® WPO, at the stated rate of application. 4 hours later and after the spray coating has dried on, the plants are sprayed with the preparation of (I-1) 2,6-dimethyl-1H,5H-[1,4]dithiino[2,3-c:5,6-c′]dipyrrole-1,3,5,7(2H,6H)-tetrone at the stated rate of application. The next day the plants are inoculated with an aqueous spore suspension of Alternaria solani. The plants are then placed in an incubation cabinet at approximately 20° C. and a relative atmospheric humidity of 100%. The test is evaluated 3 days after the inoculation. 0% means an efficacy which corresponds to that of the untreated control while an efficacy of 100% means that no disease is observed.

Botrytis cinerea = assay: Botrytis test (beans)/preventive, Example I: biological control agent sprayed first, (I-1) 4 h later; conditions: (I-1) alone 12.5 ppm a.i., lesion size evaluated 2 days after inoculation
Method: as §1
BioNem WP®, a wettable powder formulation containing the bacteria Bacillus firmus, is mixed and diluted with water to the desired concentration.
Young plants are sprayed with the aqueous preparation of the biological control agents, e.g. BioNem WP®, at the stated rate of application. 4 hours later and after the spray coating has dried on, the plants are sprayed with the preparation of (I-1) 2,6-dimethyl-1H,5H-[1,4]dithiino[2,3-c:5,6-c′]dipyrrole-1,3,5,7(2H,6H)-tetrone at the stated rate of application. The next day the plants are inoculated by placing 2 small pieces of agar covered with growth of Botrytis cinerea on each leaf. The inoculated plants are placed in a darkened chamber at 20° C. and a relative atmospheric humidity of 100%. 2 days after the inoculation, the size of the lesions on the leaves is evaluated. 0% means an efficacy which corresponds to that of the untreated control, while an efficacy of 100% means that no disease is observed.

With `Cn1c(=O)c2sc3c(=O)n(C)c(=O)c3sc2c1=O` [(I-1), 2,6-dimethyl-1H,5H-[1,4]dithiino[2,3-c:5,6-c′]dipyrrole-1,3,5,7(2H,6H)-tetrone] the “Efficacy in % found” value (Phytophthora infestans [1]) was 84%, the “Efficacy in % found” value (Sphaerotheca fidiginea) was 0% and the “Efficacy in % found” value (Venturia inaequalis [2]) was 49%. The “Efficacy in % found” value (Alternaria solani [3]) was 35%, the “Efficacy in % found” value (Phytophthora infestans [4]; (I-1) alone 12.5 ppm a.i.) was 15% and the “Efficacy in % found” value (Phytophthora infestans [4]; (I-1) alone 25 ppm a.i.) was 40%. For the same molecule, the “Efficacy in % found” value (Sphaerotheca fuliginea) was 0%, the “Efficacy in % found” value (Venturia inaequalis [5]) was 48% and the “Efficacy in % found” value (Alternaria solani [6]) was 21%. For the same molecule, the “Efficacy in % found” value (Botrytis cinerea) was 4%.

From patent publication US8658565B2 (priority 2010, dated 2014)
